System: HDAC subtypes 1, 2, 3, and 6
Experiment: [11C]martinostat PET imaging of whole rat brain, blocked tracer binding
Format: in vivo

Nc1cc(F)ccc1NC(=O)/C=C/c1cnn(C/C=C/c2ccccc2)c1 [RGFP966]
blockade of [11C]martinostat binding in whole brain (subtype-selective benzamides, ip pretreatment): 7–10%

CCCC(CCC)C(=O)O [sodium valproate]
blockade of [11C]martinostat uptake in whole brain (500 mg/kg ip, 30 min prior to tracer): 16%

Source: paper PMC4198064 (ACS Chemical Neuroscience, 2014)
